# Key:
# hM1 = hM1 (Homo sapiens (Human), UniProt P11229); assay: M1 PAM Assay (FLIPR intracellular calcium, CHO human M1 cells); type: cell-based; conditions: positive allosteric modulation in presence of EC20 of acetylcholine, first value of cell
# Procedure: (§1) The assay study the effect of several concentrations of test compounds on basal or acetylcholine-stimulated Ca^2+ levels using FLIPR.
# (§2) CHO human M1 are plated the day before the experiments at 2×10^5 cells/ml in PDL BioCoat 96 well black/clear plate (Becton 35 4640). The cells are grown at 37° C. and 5% CO2 in the following medium: F12 Nut Mix (Gibco 21765), 10% FCS heat inactivated (GIBCO 16000-044), 1% Pen Strep (Gibco, 15140) and 200 μg/ml Geneticin (Gibco 11811). On the day of the experiment, the medium was removed and replaced by 100 μl of dye loading buffer containing Hanks Balanced Salt solution (HBSS, 14065-049, Gibco) with 20 mM HEPES (Gibco 15630-056), 2 mM Probenicid (Sigma P8761), […] (Molecular Probes F-14202), 10% Pluronic acid Molecular Probes P-3000) pH=7.4 and incubated at 37° C. After 60 minutes extracellular dye was removed and the cells were washed five times with FLIPR buffer containing HBSS (Gibco 14065-049) with 20 mM HEPES (Gibco, 15630-056), 2 mM Probenicid (Sigma P8761) pre-warmed at 37° C. using and Ebml cell washer leaving 100 μl of FLIPR buffer in each well. The cell plate and the diluted compounds (1% DMSO final concentration) are placed on the platform of the FLIPR and the door closed. A signal test to check background fluorescence and basal fluorescence signal is performed. Laser intensity is adjusted if necessary. Two minutes preincubation with the diluted test compounds is provide to determine any agonist activity on the M1 receptor by comparison to 30 nM Acetylcholine control. In order to determine any modulator activity the diluted compounds were added to cells and after two minutes preincubation, the EC20 of acetylcholine is added followed by another two minutes preincubation before the measurement of intracellular Ca^2+ with a FLIPR (Molecular Devices).
# rat M1 = rat M1 (Rattus norvegicus (Rat), UniProt P08482); assay: M1 PAM Assay (FLIPR intracellular calcium), rat M1; type: cell-based; conditions: positive allosteric modulation in presence of EC20 of acetylcholine; second value of cell
# Procedure: [The procedure below names another species; the source lists this species under the same test.] as §1, §2
# rat M1, sequence (P08482 whole entry): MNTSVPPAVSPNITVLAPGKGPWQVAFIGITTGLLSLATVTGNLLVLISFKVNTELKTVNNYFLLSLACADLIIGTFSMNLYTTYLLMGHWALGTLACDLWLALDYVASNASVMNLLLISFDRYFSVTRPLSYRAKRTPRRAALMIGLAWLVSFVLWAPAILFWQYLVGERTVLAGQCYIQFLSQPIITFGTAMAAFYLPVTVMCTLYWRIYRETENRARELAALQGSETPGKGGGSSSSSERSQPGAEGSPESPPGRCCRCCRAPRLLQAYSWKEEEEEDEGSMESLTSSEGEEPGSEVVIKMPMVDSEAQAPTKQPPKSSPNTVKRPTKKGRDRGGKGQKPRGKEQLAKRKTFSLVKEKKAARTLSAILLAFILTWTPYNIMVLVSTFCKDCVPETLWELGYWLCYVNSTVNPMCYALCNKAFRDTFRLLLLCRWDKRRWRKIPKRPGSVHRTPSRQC
# hM1, sequence (P11229 whole entry): as the sequence (P08482 whole entry) above, with V5A, S254T, S309P, K320R, G337A, V413I counted along it
SMILES,EC50 (hM1) [nM],EC50 (rat M1) [nM]
"O=C(N[C@H]1CCCC[C@@H]1O)c1cc(Cc2ccc(Cl)nc2)c2ccccc2c1F (racemic) [Example 1, 4-((6-Chloropyridin-3-yl)methyl)-1-fluoro-N-((1SR,2SR)-2-hydroxycyclohexyl)-2-naphthamide]",159,137
"O=C(N[C@H]1CCOC[C@@H]1O)c1cc(Cc2ccc(Cl)nc2)c2ccccc2c1F (racemic) [Example 2, 4-((6-chloropyridin-3-yl)methyl)-1-fluoro-N-((3RS,4SR)-3-hydroxytetrahydro-2H-pyran-4-yl)-2-naphthamide]",53,118
"C[C@]1(O)CCCC[C@@H]1NC(=O)c1cc(Cc2ccc(Cl)nc2)c2ccccc2c1F (racemic) [Example 7, 4-((6-chloropyridin-3-yl)methyl)-1-fluoro-N-((1SR,2SR)-2-hydroxy-2-methylcyclohexyl)-2-naphthamide]",561,–
"C[C@@]1(O)CCCC[C@@H]1NC(=O)c1cc(Cc2ccc(Cl)nc2)c2ccccc2c1F (racemic) [Example 8, 4-((6-chloropyridin-3-yl)methyl)-1-fluoro-N-((1SR,2RS)-2-hydroxy-2-methylcyclohexyl)-2-naphthamide]",524,–
"O=C(N[C@H]1CCCC[C@H]1O)c1cc(Cc2ccc(Cl)nc2)c2ccccc2c1F (racemic) [Example 9, 4-((6-chloropyridin-3-yl)methyl)-1-fluoro-N-((1SR,2RS)-2-hydroxycyclohexyl)-2-naphthamide]",539,–
"Cc1ccc(Cc2cc(C(=O)N[C@H]3CCOC[C@@H]3O)c(F)c3ccccc23)cc1 (racemic) [Example 10, 1-Fluoro-N-((3RS,4SR)-3-hydroxytetrahydro-2H-pyran-4-yl)-4-(4-methylbenzyl)-2-naphthamide]",154,221
"O=C(N[C@H]1CCOC[C@@H]1O)c1cc(Cc2ccccc2)c2ccccc2c1F (racemic) [Example 11, 4-benzyl-1-fluoro-N-((3RS,4SR)-3-hydroxytetrahydro-2H-pyran-4-yl)-2-naphthamide]",197,356
"O=C(N[C@H]1CCOC[C@@H]1O)c1cc(Cc2ccc(Cl)cc2)c2ccccc2c1F (racemic) [Example 12, 4-(4-chlorobenzyl)-1-fluoro-N-((3RS,4SR)-3-hydroxytetrahydro-2H-pyran-4-yl)-2-naphthamide]",152,273
"N#Cc1ccc(Cc2cc(C(=O)N[C@H]3CCOC[C@@H]3O)c(F)c3ccccc23)cc1 (racemic) [Example 13, 4-(4-cyanobenzyl)-1-fluoro-N-((3RS,4SR)-3-hydroxytetrahydro-2H-pyran-4-yl)-2-naphthamide]",67,71
"Cn1cc(-c2ccc(Cc3cc(C(=O)N[C@H]4CCOC[C@@H]4O)c(F)c4ccccc34)c(F)c2)cn1 (racemic) [Example 14, 1-fluoro-4-(2-fluoro-4-(1-methyl-1H-pyrazol-4-yl)benzyl)-N-((3RS,4SR)-3-hydroxytetrahydro-2H-pyran-4-yl)-2-naphthamide]",14,14
"O=C(N[C@H]1CCOC[C@@H]1O)c1cc(Cc2ccc(OC(F)(F)F)cc2)c2ccccc2c1F (racemic) [Example 15, 1-fluoro-N-((3RS,4SR)-3-hydroxytetrahydro-2H-pyran-4-yl)-4-(4-(trifluoromethoxy)benzyl)-2-naphthamide]",541,–
"Cn1cc(-c2ccc(Cc3cc(C(=O)N[C@H]4CCOC[C@@H]4O)c(F)c4ccccc34)cc2)cn1 (racemic) [Example 16, 1-fluoro-N-((3RS,4SR)-3-hydroxytetrahydro-2H-pyran-4-yl)-4-(4-(1-methyl-1H-pyrazol-4-yl)benzyl)-2-naphthamide]",11,20
"Cn1cc(-c2ccc(Cc3cc(C(=O)N[C@H]4CCCC[C@@H]4O)c(F)c4ccccc34)cn2)cn1 (racemic) [Example 17, 1-Fluoro-N-((1S,2S)-2-hydroxycyclohexyl)-4-((6-(1-methyl-1H-pyrazol-4-yl)pyridin-3-yl)methyl)-2-naphthamide]",10,14
"Cn1cc(-c2ccc(Cc3cc(C(=O)N[C@H]4CCOC[C@@H]4O)c(F)c4ccccc34)cn2)cn1 (racemic) [Example 18, 1-fluoro-N-((3RS,4SR)-3-hydroxytetrahydro-2H-pyran-4-yl)-4-((6-(1-methyl-1H-pyrazol-4-yl)pyridin-3-yl)methyl)-2-naphthamide]",3,6
"Cn1cc(-c2ccc(Cc3cc(C(=O)N[C@H]4CCCC[C@@]4(C)O)c(F)c4ccccc34)cn2)cn1 (racemic) [Example 22, 1-fluoro-N-((1SR,2RS)-2-hydroxy-2-methylcyclohexyl)-4-((6-(1-methyl-1H-pyrazol-4-yl)pyridin-3-yl)methyl)-2-naphthamide]",20,41
"Cc1ccc(Cc2cc(C(=O)N[C@H]3CCCC[C@@H]3O)c(F)c3ccccc23)cn1 (racemic) [Example 23, 1-Fluoro-N-((1SR,2SR)-2-hydroxycyclohexyl)-4-((6-methylpyridin-3-yl)methyl)-2-naphthamide]",213,490
"O=C(N[C@@H]1CCOC[C@H]1O)c1cc(Cc2ccc(Cl)nc2)c2ccccc2c1F (stereo in doubt) [Example 25, 4-[(6-chloropyridin-3-yl)methyl]-1-fluoro-N-[(3S,4R)-3-hydroxyoxan-4-yl]naphthalene-2-carboxamide]",27,52
"O=C(N[C@H]1CCCC[C@@H]1O)c1cc(Cc2ccc(Cl)nc2)c2ccccc2c1F [Example 3, 4-((6-chloropydridin-3-yl)methyl)-1-fluoro-N-((1S,2S)-2-hydroxycyclohexyl)-2-naphthamide]",84,101
"O=C(N[C@H]1COCC[C@@H]1O)c1cc(Cc2ccc(Cl)nc2)c2ccccc2c1F [Example 4, 4-((6-Chloropyridin-3-yl)methyl)-1-fluoro-N-((3S,4S)-4-hydroxytetrahydro-2H-pyran-3-yl)-2-naphthamide]",428,–
"O=C(N[C@H]1CCC[C@@H]1O)c1cc(Cc2ccc(Cl)nc2)c2ccccc2c1F [Example 5, 4-((6-chloropyridin-3-yl)methyl)-1-fluoro-N-((1S,2S)-2-hydroxycyclopentyl)-2-naphthamide]",363,968
"O=C(N[C@H]1CCC[C@H]1O)c1cc(Cc2ccc(Cl)nc2)c2ccccc2c1F [Example 6, 4-((6-chloropydridin-3-yl)methyl)-1-fluoro-N-((1S,2R)-2-hydroxycyclopentyl)-2-naphthamide]",575,–
"Cn1cc(-c2ccc(Cc3cc(C(=O)N[C@@H]4CCOC[C@H]4O)c(F)c4ccccc34)cn2)cn1 [Example 19, 1-fluoro-N-[(3S,4R)-3-hydroxytetrahydropyran-4-yl]-4-[[6-(1-methylpyrazol-4-yl)-3-pyridyl]methyl]naphthalene-2-carboxamide]",65,97
"Cn1cc(-c2ccc(Cc3cc(C(=O)N[C@H]4CCOC[C@@H]4O)c(F)c4ccccc34)cn2)cn1 [Example 20, 1-fluoro-N-[(3R,4S)-3-hydroxytetrahydropyran-4-yl]-4-[[6-(1-methylpyrazol-4-yl)-3-pyridyl]methyl]naphthalene-2-carboxamide]",2,2
"Cn1cc(-c2ccc(Cc3cc(C(=O)N[C@H]4COCC[C@@H]4O)c(F)c4ccccc34)cn2)cn1 [Example 21, 1-fluoro-N-((3S,4S)-4-hydroxytetrahydro-2H-pyran-3-yl)-4-((6-(1-methyl-1H-pyrazol-4-yl)pyridin-3-yl)methyl)-2-naphthamide]",33,48
"O=C(N[C@H]1CCCC[C@@H]1O)c1cc(Cc2ccc(C3CC3)nc2)c2ccccc2c1F [Example 24, 4-((6-Cyclopropylpyridin-3-yl)methyl)-1-fluoro-N-((1S,2S)-2-hydroxycyclohexyl)-2-naphthamide]",230,347
"N#CC1(c2ccccn2)CCN(Cc2cc(C(=O)N[C@H]3CCCC[C@@H]3O)c(F)c3ccccc23)CC1 [Example 26, 4-((4-Cyano-4-(pyridin-2-yl)piperidin-1-yl)methyl)-1-fluoro-N-((1S,2S)-2-hydroxycyclohexyl)-2-naphthamide]",258,345

# Reference: patent publication US9708302B2, “Flouro-naphthyl derivatives” (Hoffmann-La Roche Inc., priority 2014, dated 2017)
